Patent publication US20080262066A1, “Azole Derivatives as Cannabinoid CB1 Receptor Antagonists” (Green Cross Corporation, priority 2007, published 2008)

What follows are compounds tested against T1, rat CB-1 receptor (Rattus norvegicus, UniProt P20272) (assay: rat CB-1 receptor binding protocol with [3H]CP-55940 on SD rat brain tissue). Details: [3H]CP-55940 displacement, SD rat brain homogenate, 30° C., 60 min; read-out: IC50 (binding affinity for CB1 receptor).
T1 construct: The tissue obtained from the brain of SD rats was homogenized; from tissue; host or cells: SD rat brain (membrane pellet of homogenate)
T1 sequence (P20272 whole entry): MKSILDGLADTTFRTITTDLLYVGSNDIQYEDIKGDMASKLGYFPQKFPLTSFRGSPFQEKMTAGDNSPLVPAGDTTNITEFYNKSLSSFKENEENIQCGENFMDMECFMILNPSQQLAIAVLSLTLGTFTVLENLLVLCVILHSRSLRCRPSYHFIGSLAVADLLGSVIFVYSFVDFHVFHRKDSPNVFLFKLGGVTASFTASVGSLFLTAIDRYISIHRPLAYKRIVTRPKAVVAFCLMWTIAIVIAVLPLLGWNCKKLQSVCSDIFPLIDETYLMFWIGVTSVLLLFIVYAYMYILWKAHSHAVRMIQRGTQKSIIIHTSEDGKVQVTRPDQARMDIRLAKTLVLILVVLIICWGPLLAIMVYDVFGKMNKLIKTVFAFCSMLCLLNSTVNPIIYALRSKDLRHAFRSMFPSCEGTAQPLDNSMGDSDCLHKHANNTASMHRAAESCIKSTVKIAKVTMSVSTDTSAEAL
Method: The tissue obtained from the brain of SD rats was homogenized with a Dounce homogenate system in TME (50 mM Tris, 3 mM MgCl2 and 1 mM EDTA, pH 7.4) at 4° C., and the homogenate was centrifuged at 48,000 g for 30 min. at 4° C. The pellet was resuspended in 5 ml of TME and the suspension was divided into aliquots and stored at −70° C. until its use in the following assay.
The tissue concentrations were determined by Bradford protein analysis, and 148 μl of brain tissue of the required concentration was added to the plate. The plate was covered and placed in a 30° C. incubator for 60 min, and then transformed on GF/B filtermat pretreated in polyethylenimine (PEI) using a cell harvester. Each filter was washed five times and dried at 60° C. for 1 hr. Then, the degree of radioactivity retained by the filter was measured using Wallac Microbeta™ (PerkinElmer Life Sciences, Inc., Massachusetts, U.S.A.) and the activity of the compound for inhibiting CB1 receptor was determined therefrom.
Compound `CCC(CC)C(=O)NC(=O)c1nc(-c2ccc(Cl)cc2Cl)n(-c2ccc(Cl)cc2)c1C` [Example 27, 1-(4-Chlorophenyl)-2-(2,4-dichlorophenyl)-N-(2-ethylbutanoyl)-5-methyl-1H-imidazole-4-carboxamide] has an IC50 of 0.02 µM. In the case of `Cc1c(C(=O)NC(=O)C2CCCCC2)nc(-c2ccc(Cl)cc2Cl)n1-c1ccc(Cl)cc1` [Example 28, 1-(4-Chlorophenyl)-N-(cyclohexanecarbonyl)-2-(2,4-dichlorophenyl)-5-methyl-1H-imidazole-4-carboxamide], the IC50 is reported as 0.088 µM. `Cc1c(C(=O)NC(=O)C(C)(C)C)nc(-c2ccc(Cl)cc2Cl)n1-c1ccc(Cl)cc1` [Example 29, 1-(4-Chlorophenyl)-2-(2,4-dichlorophenyl)-5-methyl-N-pivaloyl-1H-imidazole-4-carboxamide] was tested, and the IC50 was 0.04 µM. In the case of `CCC(C)(C)C(=O)NC(=O)c1nc(-c2ccc(Cl)cc2Cl)n(-c2ccc(Cl)cc2)c1C` [Example 30, 1-(4-Chlorophenyl)-2-(2,4-dichlorophenyl)-N-(2,2-dimethylbutanoyl)-5-methyl-1H-imidazole-4-carboxamide], the IC50 is reported as 0.0399 µM. In the case of `CCCC(CCC)C(=O)NC(=O)c1nc(-c2ccc(Cl)cc2Cl)n(-c2ccc(Cl)cc2)c1C` [Example 31, 1-(4-Chlorophenyl)-2-(2,4-dichlorophenyl)-5-methyl-N-(2-propylpentanoyl)-1H-imidazole-4-carboxamide], the IC50 is reported as 0.0754 µM. Compound `CCCCC(CC)C(=O)NC(=O)c1nc(-c2ccc(Cl)cc2Cl)n(-c2ccc(Cl)cc2)c1C` (stereo not drawn) [Example 32, 1-(4-Chlorophenyl)-2-(2,4-dichlorophenyl)-N-(2-ethylhexanoyl)-5-methyl-1H-imidazole-4-carboxamide] has an IC50 of 0.0466 µM. `CCCCCCCC(=O)NCNC(=O)c1nn(-c2ccc(Cl)cc2Cl)c(-c2ccc(Cl)cc2)c1C` [Example 33, 5-(4-Chlorophenyl)-1-(2,4-dichlorophenyl)-4-methyl-N-(octanamidomethyl)-1H-pyrazole-3-carboxamide] gave an IC50 of 1.18 µM. Compound `Cc1c(C(=O)NCNC(=O)C2CCC2)nn(-c2ccc(Cl)cc2Cl)c1-c1ccc(Cl)cc1` [Example 34, 5-(4-Chlorophenyl)-N-(cyclobutanecarboxamidomethyl)-1-(2,4-dichlorophenyl)-4-methyl-1H-pyrazole-3-carboxamide] has an IC50 of 0.15 µM. In the case of `Cc1c(C(=O)NCNC(=O)C2CCCCC2)nn(-c2ccc(Cl)cc2Cl)c1-c1ccc(Cl)cc1` [Example 35, 5-(4-Chlorophenyl)-N-(cyclohexanecarboxamidomethyl)-1-(2,4-dichlorophenyl)-4-methyl-1H-pyrazole-3-carboxamide], the IC50 is reported as 0.0492 µM. For `CCCC(=O)NCNC(=O)c1nn(-c2ccc(Cl)cc2Cl)c(-c2ccc(Cl)cc2)c1C` [Example 36, N-(Butyramidomethyl)-5-(4-chlorophenyl)-1-(2,4-dichlorophenyl)-4-methyl-1H-pyrazole-3-carboxamide], the IC50 was 0.905 µM. In the case of `Cc1c(C(=O)NCNC(=O)C(C)C)nn(-c2ccc(Cl)cc2Cl)c1-c1ccc(Cl)cc1` [Example 37, 5-(4-Chlorophenyl)-1-(2,4-dichlorophenyl)-N-(isobutyramidomethyl)-4-methyl-1H-pyrazole-3-carboxamide], the IC50 is reported as 0.951 µM. `Cc1c(C(=O)NCNC(=O)C2CCCCCC2)nn(-c2ccc(Cl)cc2Cl)c1-c1ccc(Cl)cc1` [Example 38, 5-(4-Chlorophenyl)-N-(cycloheptanecarboxamidomethyl)-1-(2,4-dichlorophenyl)-4-methyl-1H-pyrazole-3-carboxamide] gave an IC50 of 0.0756 µM. `Cc1c(C(=O)NCNC(=O)CC2CCCCC2)nn(-c2ccc(Cl)cc2Cl)c1-c1ccc(Cl)cc1` [Example 39, 5-(4-Chlorophenyl)-N-((2-cyclohexylacetamido)methyl)-1-(2,4-dichlorophenyl)-4-methyl-1H-pyrazole-3-carboxamide] was tested, and the IC50 was 0.0465 µM. `Cc1c(C(=O)NCNC(=O)C2CCCC(C)C2)nn(-c2ccc(Cl)cc2Cl)c1-c1ccc(Cl)cc1` (stereo not drawn) [Example 40, 5-(4-Chlorophenyl)-1-(2,4-dichlorophenyl)-4-methyl-N-((3-methylcyclohexanecarboxamido)methyl)-1H-pyrazole-3-carboxamide] showed an IC50 of 0.102 µM. `Cc1c(C(=O)NCNC(=O)CC2CCCC2)nn(-c2ccc(Cl)cc2Cl)c1-c1ccc(Cl)cc1` [Example 41, 5-(4-Chlorophenyl)-N-((2-cyclopentylacetamido)methyl)-1-(2,4-dichlorophenyl)-4-methyl-1H-pyrazole-3-carboxamide] gave an IC50 of 0.138 µM.
